Experimental data as given in US10633389B2, “CARM1 inhibitors and uses thereof” (Epizyme, Inc., priority 2013, dated 2020).

Test system: asymmetric di-methyl PABP1 in RKO cells
Assay: RKO methylation assay, In Cell Western (ICW) for asymmetric di-methyl PABP1
Format: cell-based
Conditions: Cellular potencies, ICW PABP1me2a
Outline: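 In-cell Western on fixed RKO cells after 48 h compound exposure: anti-asymmetric di-methyl PABP1 signal at 800 nm over DRAQ5 DNA signal at 700 nm. Percent inhibition set between DMSO wells and wells with 20 μM reference compound; IC50 curves fitted in triplicate.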

Row | SMILES | IC50 [µM]
1 | CNC[C@@H](O)COc1ccc(Cl)c(-c2nc(-c3c(C)noc3C)c(C)c(N3Cc4c(C)nn(C)c4C3)n2)c1 [Example 237-3] | < 5

Same assay, conditions: Homo sapiens, RKO, Cellular potencies, ICW PABP1me2a

Row | SMILES | IC50 [µM]
2 | CNCC(O)COc1cccc(-c2nc(N[C@@H]3CCNC[C@@H]3F)c(C)c(-c3c(C)noc3C)n2)c1 (some centres unmarked) [Example 224-1a] | < 5
3 | CNCC(O)COc1cccc(-c2nc(NC3CCN(CC(F)F)C3)c(C)c(-c3c(C)noc3C)n2)c1 (centres unmarked) [Example 195-1a] | < 5
4 | CNCC(O)COc1cccc(-c2nc(-c3c(C)noc3C)cc(N3CCNC(C)(C)C3)n2)c1 (centres unmarked) [Example 36-1a] | 10 to 20
5 | CC[C@H]1CN(c2nc(-c3cccc(OCC(O)CNC)c3)nc(-c3c(C)noc3C)c2C)CCN1S(C)(=O)=O (some centres unmarked) [Example 155-1a] | < 5
6 | CNCC(O)COc1cc(NC)cc(-c2nc(NC3CCOCC3)c(C)c(-c3c(C)noc3C)n2)c1 (centres unmarked) [Example 136-1a] | < 5
7 | CNCC(O)COc1cccc(-c2nc(N[C@@H]3CCOC3)c(C)c(N3CCC4(CCOCC4)C3)n2)c1 (some centres unmarked) [Example 462-1a] | 10 to 20
8 | CNCC(O)COc1cccc(-c2nc(N3CCNC(=O)C3)cc(N(C)C3CCOCC3)n2)c1 (centres unmarked) [Example 575-1a] | 10 to 20
9 | CNCC(O)COc1cccc(-c2nc(NC3CN(C(=O)C4CC4)C3)c(C)c(-c3c(C)noc3C)n2)c1 (centres unmarked) [Example 264-1a] | 5 to 10
10 | CNC[C@@H](O)COc1ccc(Cl)c(-c2nc(-c3c(C)noc3C)c(Cl)c(N3Cc4nccnc4C3)n2)c1 [Example 225-3] | < 5
11 | CNCC(O)COc1cccc(-c2nc(-c3c(C)noc3C)cc(N(CCOC)C3CCOCC3)n2)c1 (centres unmarked) [Example 98-1a] | < 5
12 | CNCC(O)COc1cccc(-c2nc(NC3CCOC3)c(C)c(N3CC4CC(C3)N4)n2)c1 (centres unmarked) [Example 452-1a] | 10 to 20
13 | CNCC(O)COc1cc(Cl)cc(-c2nc(N[C@@H]3CCOC3)c(C)c(-c3ccncc3)n2)c1 (some centres unmarked) [Example 331-1a] | 5 to 10
14 | CNCC(O)COc1cccc(-c2nc(NC3CCOCC3)cc(-c3ccc4c(c3)OCCO4)n2)c1 (centres unmarked) [Example 657-1a] | ≥ 20
15 | CNC[C@@H](O)COc1ccc(Cl)c(-c2nc(N[C@@H]3CO[C@@H](C)C3)c(Cl)c(-c3c(C)noc3C)n2)c1 [Example 181-3] | < 5
16 | CNCC(O)COc1cccc(-c2nc(N[C@H]3C[C@H]4CC[C@@H](C3)N4C(=O)OC)c(C)c(-c3c(C)noc3C)n2)c1 (some centres unmarked) [Example 266-1a] | < 5
17 | CNCC(O)COc1ccc(Cl)c(-c2nc(NCC3CCOC3)c(C)c(-c3c(C)noc3C)n2)c1 (centres unmarked) [Example 30-3] | < 5
18 | CNCC(O)COc1cccc(-c2nc(N3CC4CCC(C3)O4)cc(N(C)C3CCOCC3)n2)c1 (centres unmarked) [Example 566-1a] | 10 to 20
19 | CNCC(O)COc1cccc(-c2nc(N3CCO[C@H](CN)C3)cc(N(C)C3CCOCC3)n2)c1 (some centres unmarked) [Example 524-1a] | 5 to 10
20 | CNCC(O)COc1cccc(-c2nc(N[C@H]3C[C@@](C)(OC)C3)c(C)c(-c3c(C)noc3C)n2)c1 (some centres unmarked) [Example 19-3] | < 5
21 | CNCC(O)COc1cccc(-c2nc(-c3c(C)noc3C)c(C)c(N3CCO[C@@H](CN(C)C(=O)N(C)C)C3)n2)c1 (some centres unmarked) [Example 176-1a] | < 5
22 | CNCC(O)COc1cccc(-c2nc(N3CCC[C@H](O)C3)cc(N(C)C3CCOCC3)n2)c1 (some centres unmarked) [Example 538-1a] | 10 to 20
23 | CNCC(O)COc1cccc(-c2nc(N(C)c3cncnc3)cc(N(C)C3CCOCC3)n2)c1 (centres unmarked) [Example 487-1a] | < 5
24 | CNCC(O)COc1cccc(-c2nc(N[C@@H]3CCOC3)c(C)c(-c3cncnc3)n2)c1 (some centres unmarked) [Example 350-1a] | 10 to 20

Row | SMILES | IC50 [µM]
25 | CNCC(O)COc1cccc(-c2nc(-c3c(C)noc3C)cc(N3C[C@@H]4C[C@H]3CN4S(C)(=O)=O)n2)c1 (some centres unmarked) [Example 80-1a] | 10 to 20
26 | CNCC(O)COc1cccc(-c2nc(-c3c(C)noc3C)cc(N3CCNC(C(F)(F)F)C3)n2)c1 (centres unmarked) [Example 131-1a] | < 5
27 | CNCC(O)COc1cc(Cl)cc(-c2nc(N[C@@H]3CCOC3)cc(-c3c(C)noc3C)n2)c1 (some centres unmarked) [Example 10-1a] | 10 to 20
28 | CCOC(=O)N1CCC(CNc2nc(-c3cccc(OCC(O)CNC)c3)nc(-c3c(C)noc3C)c2C)CC1 (centres unmarked) [Example 191-1a] | < 5
29 | CNCC(O)COc1cccc(-c2nc(NCC3CCCN(CC(F)F)C3)c(C)c(-c3c(C)noc3C)n2)c1 (centres unmarked) [Example 193-1a] | < 5
30 | CNCC(O)COc1cccc(-c2nc(N[C@@H]3CCOC3)c(C)c(N3Cc4ccncc4C3)n2)c1 (some centres unmarked) [Example 427-1a] | < 5
31 | CNCC(O)COc1cccc(-c2nc(Nc3cnc(C)nc3)cc(-c3c(C)noc3C)n2)c1 (centres unmarked) [Example 49-1a] | 5 to 10
32 | CNCC(O)COc1cccc(-c2nc(NC3CCOCC3)c(C)c(-c3c(C)noc3CO)n2)c1 (centres unmarked) [Example 145-3] | 10 to 20
33 | CNCC(O)COc1cccc(-c2nc(-c3c(C)noc3C)c(C)c(N3CCC4(CC3)CN(C(=O)OC)C4)n2)c1 (centres unmarked) [Example 251-1a] | < 5
34 | CNCC(O)COc1ccc(Cl)c(-c2nc(NC[C@@H]3CCCO3)c(C)c(-c3c(C)noc3C)n2)c1 (some centres unmarked) [Example 7-3] | < 5
35 | CNCC(O)COc1cccc(-c2nc(-c3ccncc3)c(C)c(N(C)C3CCOCC3)n2)c1 (centres unmarked) [Example 537-1a] | 5 to 10
36 | CNC[C@@H](O)COc1ccc(F)c(-c2nc(-c3c(C)noc3C)c(C)c(N3Cc4cc(F)cnc4C3)n2)c1 [Example 164-3] | < 5
37 | CNCC(O)COc1cccc(-c2nc(NCC3(C)CCOCC3)c(C)c(-c3c(C)noc3C)n2)c1 (centres unmarked) [Example 115-1a] | < 5
38 | CNC[C@@H](O)COc1ccc(Cl)c(-c2nc(N[C@@H]3CO[C@H](C)C3)c(Cl)c(-c3c(C)noc3C)n2)c1 [Example 180-3] | < 5
39 | CCOC(=O)N1CC2(CCCN(c3nc(-c4cccc(OCC(O)CNC)c4)nc(-c4c(C)noc4C)c3C)C2)C1 (centres unmarked) [Example 295-1a] | < 5
40 | CNCC(O)COc1cccc(-c2nc(NC3CCCN(S(C)(=O)=O)C3)c(C)c(-c3c(C)noc3C)n2)c1 (centres unmarked) [Example 198-1a] | < 5
41 | CNCC(O)COc1cccc(-c2nc(NCC3CCOCC3)c(Cl)c(-c3c(C)noc3C)n2)c1 (centres unmarked) [Example 142-1a] | < 5
42 | CCc1onc(C)c1-c1nc(-c2cccc(OCC(O)CNC)c2)nc(NC2CCOCC2)c1C (centres unmarked) [Example 276-1a] | < 5
43 | CNCC(O)COc1cccc(-c2nc(NCC3CCN(C(=O)N(C)C)CC3)c(C)c(-c3c(C)noc3C)n2)c1 (centres unmarked) [Example 248-1a] | < 5
44 | CNC[C@H](O)COc1ccc(Cl)c(-c2nc(NC3CCN(C(=O)OC)CC3)c(Cl)c(-c3c(C)noc3C)n2)c1 [Example 305-1a] | < 5
45 | CNCC(O)COc1cccc(-c2nc(-c3c(C)noc3C)c(C)c(N3CC4(CN(C(=O)N(C)C)C4)C3)n2)c1 (centres unmarked) [Example 309-1a] | < 5
46 | CNCC(O)COc1cccc(-c2nc(-c3c(C)noc3C)c(C)c(N3Cc4cccnc4C3)n2)c1 (centres unmarked) [Example 35-3] | < 5
47 | CNCC(O)COc1ccc(Cl)c(-c2nc(NC3CCOCC3)c(C)c(-c3c(C)nsc3C)n2)c1 (centres unmarked) [Example 97-3] | < 5

Row | SMILES | IC50 [µM]
48 | CNCC(O)COc1cccc(-c2nc(N[C@H]3C[C@@](C)(O)C3)cc(-c3c(C)noc3C)n2)c1 (some centres unmarked) [Example 67-1a] | 10 to 20
49 | CNCC(O)COc1cccc(-c2nc(N[C@@H]3CCOC3)c(C)c(-c3c(C)noc3C)n2)c1 (some centres unmarked) [Example 66-1a] | < 5
50 | CNCC(O)COc1cc(Cl)cc(-c2nc(NC3CCOCC3)c(C)c(-c3c(C)noc3C)n2)c1 (centres unmarked) [Example 47-1a] | < 5
51 | CNC[C@@H](O)COc1ccc(Cl)c(-c2nc(NC3CC(COC)C3)c(C)c(-c3c(C)noc3C)n2)c1 (some centres unmarked) [Example 219-3] | < 5
52 | CNCC(O)COc1cccc(-c2nc(-c3cncnc3)cc(-c3c(C)noc3C)n2)c1 (centres unmarked) [Example 8-1a] | 10 to 20
53 | CNC[C@@H](O)COc1ccc(Cl)c(-c2nc(-c3c(C)noc3C)c(C)c(N3Cc4nccnc4C3)n2)c1 [Example 142-3] | < 5
54 | CNCC(O)COc1cccc(-c2nc(OCC3CCN(C(=O)N(C)C)CC3)c(C)c(-c3c(C)noc3C)n2)c1 (centres unmarked) [Example 285-1a] | < 5
55 | CNC[C@@H](O)COc1ccc(Cl)c(-c2nc(-c3c(C)noc3C)c(C)c(N3CC4(CCC4)C3)n2)c1 [Example 246-3] | < 5
56 | CNCC(O)COc1cccc(-c2nc(-c3c(C)noc3C)c(C)c(N3CCO[C@H](CN(C)S(C)(=O)=O)C3)n2)c1 (some centres unmarked) [Example 126-1a] | 5 to 10
57 | CNCC(O)COc1cccc(-c2nc(N[C@@H]3CCOC[C@@H]3F)c(C)c(-c3c(C)noc3C)n2)c1 (some centres unmarked) [Example 271-1a] | < 5
58 | CNCC(O)COc1cccc(-c2nc(N[C@H]3[C@@H]4CN(C(=O)OC)C[C@@H]43)c(C)c(-c3c(C)noc3C)n2)c1 (some centres unmarked) [Example 282-1a] | < 5
59 | CNCC(O)COc1cccc(-c2nc(-c3c(C)noc3C)c(C)c(N3C[C@@H]4C[C@H]3CN4C)n2)c1 (some centres unmarked) [Example 84-1a] | < 5
60 | CNCC(O)COc1cccc(-c2nc(NC3CCOC3)c(C)c(N3CCN(CC(F)(F)F)CC3)n2)c1 (centres unmarked) [Example 449-1a] | < 5
61 | CNC[C@@H](O)COc1ccc(Cl)c(-c2nc(NC3CC(F)C3)c(C)c(-c3c(C)noc3C)n2)c1 (some centres unmarked) [Example 188-3] | < 5
62 | CNCC(O)COc1cc(Cl)cc(-c2nc(-c3ccn4cnnc4c3)c(C)c(N(C)C3CCOCC3)n2)c1 (centres unmarked) [Example 70-1] | 10 to 20
63 | CNCC(O)COc1cccc(-c2nc(N[C@@H]3CCOC3)c(C)c(C3=CC(C)(C)NC(C)(C)C3)n2)c1 (some centres unmarked) [Example 415-1a] | 10 to 20
64 | CNCC(O)COc1cccc(-c2nc(N[C@H]3C[C@@H](O)C3)cc(-c3c(C)noc3C)n2)c1 (some centres unmarked) [Example 41-1a] | 10 to 20
65 | CNC[C@H](O)COc1ccc(F)c(-c2nc(-c3c(C)noc3C)c(C)c(N3CCC4(CC3)CN(S(C)(=O)=O)C4)n2)c1 [Example 76-3] | < 5
66 | CNCC(O)COc1cccc(-c2nc(NC3CCOC3)c(C)c(N3CCN[C@@H](C)C3)n2)c1 (some centres unmarked) [Example 351-1a] | 5 to 10
67 | CNC[C@H](O)COc1ccc(Cl)c(-c2nc(-c3c(C)noc3C)cc(N3CC4(CCN(C5CC5)CC4)C3)n2)c1 [Example 69-3] | < 5
68 | CNCC(O)COc1ccc(C)c(-c2nc(NC3CCN(C(=O)OC)CC3)c(C)c(-c3c(C)noc3C)n2)c1 (centres unmarked) [Example 125-3] | < 5
